# Assay results as given in ChEMBL document CHEMBL1201862, “PubChem BioAssay data set” (2004).
#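 A five-concentration, 48-hour dose response in 96-well plates underlies each endpoint, interpolated linearly between surrounding concentrations. GI50 marks 50% less growth.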 Active and inactive are the calls of the source. Rule as the data show it: active = GI50 up to about 1.1 µM and inactive = higher.
# How the values were obtained:
# Test in all cases: NCI tumour cell line growth inhibition, 48 h
# KM-20L2 = test system: KM-20L2
# DMS-273 = test system: DMS-273
# DLD-1 = test system: DLD-1
# XF498 = test system: XF498
# RXF 631 = test system: RXF 631
# HOP-18 = test system: HOP-18
# LXFL 529 = test system: LXFL 529
# DMS-114 = test system: DMS-114
# Hs-578T = test system: Hs-578T
SMILES,GI50 (KM-20L2),GI50 (DMS-273),GI50 (DLD-1),GI50 (XF498),GI50 (RXF 631),GI50 (HOP-18),GI50 (LXFL 529),GI50 (DMS-114),GI50 (Hs-578T)
CC1=Nc2c(ccc3c2C(=O)c2ccccc2C3=O)NC(c2cccc3c2CCC3)C1 (centres undefined),> 100 µM (inactive),> 73.6 µM (inactive),46.1 µM (inactive),> 100 µM (inactive),70.1 µM (inactive),> 67.3 µM (inactive),> 100 µM (inactive),–,–
CS(=O)(=O)Nc1ccc(Nc2c3ccccc3nc3ccccc23)cc1,3.06 µM (inactive),0.658 µM (active),4.15 µM (inactive),2.6 µM (inactive),1.77 µM (inactive),2.82 µM (inactive),3.43 µM (inactive),1.46 µM (inactive),6.43 µM (inactive)
CCCC(OCC)(OCC)OCC,> 100 µM (inactive),52.1 µM (inactive),> 100 µM (inactive),> 100 µM (inactive),> 100 µM (inactive),> 100 µM (inactive),> 100 µM (inactive),69 µM (inactive),–
CN(C)C(=S)/N=c1\ss/c(=N/c2ccccc2)n1C,> 100 µM (inactive),> 100 µM (inactive),> 100 µM (inactive),–,44.6 µM (inactive),> 100 µM (inactive),> 100 µM (inactive),77.1 µM (inactive),–
CC(=O)Oc1cc(C)c2c(c1OC(C)=O)CC1(O2)[C@@H](C)CCC2[C@@]3(C)CC[C@H](OC(C)=O)C(C)(C)C3CC[C@]21C (some centres undefined),14.1 µM (inactive),2.25 µM (inactive),3.42 µM (inactive),–,5.4 µM (inactive),2.64 µM (inactive),4.62 µM (inactive),2.29 µM (inactive),–
C[C@]12C=CC(=O)C=C1CC[C@H]1[C@@H]3C[C@@H](O)[C@](O)(C(=O)CO)[C@@]3(C)C[C@H](O)[C@@]12F [TRIAMCINOLONE],> 100 µM (inactive),> 100 µM (inactive),> 100 µM (inactive),> 100 µM (inactive),> 100 µM (inactive),–,> 100 µM (inactive),> 100 µM (inactive),–
O=c1c(O)cccn1C1OC(CO)C(O)C1O (centres undefined),> 100 µM (inactive),> 100 µM (inactive),> 100 µM (inactive),–,> 100 µM (inactive),> 100 µM (inactive),> 100 µM (inactive),> 100 µM (inactive),–
COc1cc(Br)c(CC2=NCCc3cc(OC)c(OC)cc32)cc1OC,3.18 µM (inactive),15.9 µM (inactive),45.4 µM (inactive),–,10.2 µM (inactive),11.3 µM (inactive),12.5 µM (inactive),8.89 µM (inactive),–
CCC(C)C(N)C(=O)NC(CC(N)=O)C(=O)NC(CC(C)C)C(=O)NC(CCCCN)C(=O)NC(C)C(=O)NC(CC(C)C)C(=O)NC(C)C(=O)NC(C)C(=O)NC(CC(C)C)C(=O)NC(C)C(=O)NC(CCCCN)C(=O)NC(CCCCN)C(=O)NC(C(=O)NC(CC(C)C)C(N)=O)C(C)CC (centres undefined),22.5 µM (inactive),7.43 µM (inactive),10.4 µM (inactive),–,7.82 µM (inactive),7.01 µM (inactive),14.9 µM (inactive),14.1 µM (inactive),–
C[C@]12CCCC(=O)C1C[C@H](C(=O)O)CC2 (some centres undefined),> 100 µM (inactive),> 100 µM (inactive),> 100 µM (inactive),> 100 µM (inactive),> 100 µM (inactive),> 100 µM (inactive),> 100 µM (inactive),> 100 µM (inactive),–
O=[N+]([O-])c1ccc(OCCNc2cccc3ccccc23)cc1,> 100 µM (inactive),46.7 µM (inactive),37.9 µM (inactive),> 100 µM (inactive),> 100 µM (inactive),> 100 µM (inactive),33.3 µM (inactive),52.8 µM (inactive),–
COc1ccc(-c2cc(-c3cc(C)ccc3O)nc(O)n2)cc1,> 100 µM (inactive),50.8 µM (inactive),> 100 µM (inactive),–,> 100 µM (inactive),> 100 µM (inactive),64 µM (inactive),81.8 µM (inactive),–
